The experiment deals with GRB2 (growth factor receptor bound protein 2) (Homo sapiens, UniProt P62993). Kind of experiment: biochemical.
Chain of GRB2 (growth factor receptor bound protein 2) (P62993 whole entry): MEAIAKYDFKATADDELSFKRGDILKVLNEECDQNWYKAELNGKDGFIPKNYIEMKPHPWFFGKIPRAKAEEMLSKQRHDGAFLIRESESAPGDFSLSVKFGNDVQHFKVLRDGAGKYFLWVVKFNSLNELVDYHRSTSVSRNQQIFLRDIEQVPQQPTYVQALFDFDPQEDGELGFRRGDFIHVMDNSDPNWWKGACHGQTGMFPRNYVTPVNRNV

As for `CC(C)=CCC[C@](C)(O)[C@H]1CC[C@]2(C)[C@@H]1[C@H](O)C[C@@H]1[C@@]3(C)CC[C@H](O[C@@H]4O[C@H](CO)[C@@H](O)[C@H](O)[C@H]4O[C@@H]4O[C@H](CO)[C@@H](O)[C@H](O)[C@H]4O)C(C)(C)[C@@H]3CC[C@]12C` [ginsenoside Rg3], the Kd is 1530 ± 110 nM.

What is called Kd is a measure of binding affinity in units of concentration. Read a high Kd as a looser complex.

Source of the values: article doi:10.1101/2021.02.17.431525v1 (biorxiv, 2021).
